Laboratory results reported in ChEMBL document CHEMBL1201862, “PubChem BioAssay data set” (2004).
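In this assay, cells in 96-well plates receive the compound at five concentrations for 48 hours. Endpoints are linearly interpolated between the surrounding concentrations. GI50 = concentration required for 50% inhibition of growth.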 Active and inactive are the calls of the source. Cut-off read from the data, not from the text of the source: active = GI50 up to about 1.1 µM and inactive = higher.

What was measured:
Experiment in all cases: NCI tumour cell line growth inhibition, 48 h
[1] = tested on: OVCAR-4
[2] = tested on: Malme-3M
[3] = tested on: UACC-62
[4] = tested on: NCI-H522
[5] = tested on: OVCAR-5
[6] = tested on: SF-539
[7] = tested on: SW-620
[8] = tested on: DU-145
[9] = tested on: EKVX
[10] = tested on: MDA-N
[11] = tested on: 786-0
[12] = tested on: SK-MEL-5
[13] = tested on: ACHN
[14] = tested on: LOX IMVI
[15] = tested on: MDA-MB-231
[16] = tested on: OVCAR-3
[17] = tested on: IGROV-1
[18] = tested on: COLO 205
[19] = tested on: T47D

Compound	GI50 [1]	GI50 [2]	GI50 [3]	GI50 [4]	GI50 [5]	GI50 [6]	GI50 [7]	GI50 [8]	GI50 [9]	GI50 [10]	GI50 [11]	GI50 [12]	GI50 [13]	GI50 [14]	GI50 [15]	GI50 [16]	GI50 [17]	GI50 [18]	GI50 [19]
C=C/C(C)=C\CC1[C@](C)(O)CC[C@H]2C(C)(C)C(O)CC[C@]12C (stereo partly specified)	> 100 µM (inactive)	> 100 µM (inactive)	> 100 µM (inactive)	91.4 µM (inactive)	> 100 µM (inactive)	> 100 µM (inactive)	> 100 µM (inactive)	> 100 µM (inactive)	> 100 µM (inactive)	> 100 µM (inactive)	> 100 µM (inactive)	84.1 µM (inactive)	> 100 µM (inactive)	> 100 µM (inactive)	> 100 µM (inactive)	92.3 µM (inactive)	> 100 µM (inactive)	> 100 µM (inactive)	
COc1cc(COC(=O)N(CC(=O)O)c2ccccc2)c([N+](=O)[O-])cc1OC		> 100 µM (inactive)	> 100 µM (inactive)		> 100 µM (inactive)	> 100 µM (inactive)	> 100 µM (inactive)	> 100 µM (inactive)	> 100 µM (inactive)	> 100 µM (inactive)	> 100 µM (inactive)	> 100 µM (inactive)	> 100 µM (inactive)			> 100 µM (inactive)	> 100 µM (inactive)	> 100 µM (inactive)	> 100 µM (inactive)
N#Cc1c(Cl)c(C=O)c(=O)n2c1[nH]c1ccccc12	84.5 µM (inactive)	26.4 µM (inactive)	55.6 µM (inactive)	44 µM (inactive)	28.4 µM (inactive)	35.9 µM (inactive)	77.4 µM (inactive)	50.4 µM (inactive)	> 100 µM (inactive)	43.7 µM (inactive)	55.7 µM (inactive)	91.8 µM (inactive)	84.3 µM (inactive)	33.7 µM (inactive)	31.8 µM (inactive)	20.1 µM (inactive)	> 100 µM (inactive)	59.7 µM (inactive)	
CCOC(=O)C(NC(=O)C(CCCCNP(=O)(OCC)OCC)NC(=O)C(C)NC(C)=O)C(C)C (stereo unspecified)	> 100 µM (inactive)	> 100 µM (inactive)			> 100 µM (inactive)	> 100 µM (inactive)	> 100 µM (inactive)	> 100 µM (inactive)	> 100 µM (inactive)	> 100 µM (inactive)	> 100 µM (inactive)	> 100 µM (inactive)	> 100 µM (inactive)	> 100 µM (inactive)	> 100 µM (inactive)	> 100 µM (inactive)	> 100 µM (inactive)	> 100 µM (inactive)	
COc1ccc(S(=O)(=O)N(CC(=O)O)c2ccccc2)cc1	> 100 µM (inactive)	> 100 µM (inactive)	> 100 µM (inactive)	> 100 µM (inactive)	> 100 µM (inactive)	> 100 µM (inactive)	> 100 µM (inactive)		> 100 µM (inactive)		> 100 µM (inactive)	> 100 µM (inactive)	> 100 µM (inactive)	> 100 µM (inactive)		> 100 µM (inactive)	> 100 µM (inactive)	> 100 µM (inactive)	
Cn1c(=O)nc2n(-c3ccc(Cl)cc3)c3ccc(Cl)cc3nc-2c1=O			1.07 µM (active)	6.35 µM (inactive)	16.1 µM (inactive)		4.44 µM (inactive)		12.9 µM (inactive)		12.2 µM (inactive)	1.04 µM (active)		3.14 µM (inactive)		2.57 µM (inactive)	19.5 µM (inactive)		
COc1ccc(-n2c(=O)c3nc[nH]c3n(-c3ccc(OC)cc3)c2=S)cc1	> 100 µM (inactive)		> 100 µM (inactive)	17.7 µM (inactive)	> 100 µM (inactive)	> 100 µM (inactive)	> 100 µM (inactive)	> 100 µM (inactive)	> 100 µM (inactive)		> 100 µM (inactive)	> 100 µM (inactive)	> 100 µM (inactive)	> 100 µM (inactive)	> 100 µM (inactive)	> 100 µM (inactive)	> 100 µM (inactive)	> 100 µM (inactive)	> 100 µM (inactive)
CC(C)=C[C@H]1CCC2(OCCO2)[C@]1(C)CO	> 100 µM (inactive)	> 100 µM (inactive)		> 100 µM (inactive)	> 100 µM (inactive)	> 100 µM (inactive)	> 100 µM (inactive)		58.7 µM (inactive)	> 100 µM (inactive)	> 100 µM (inactive)	> 100 µM (inactive)	> 100 µM (inactive)	> 100 µM (inactive)	> 100 µM (inactive)		> 100 µM (inactive)	> 100 µM (inactive)	> 100 µM (inactive)
Cc1c(/C=N/NC(=S)N2CCCCC2)c(=O)n(-c2ccccc2)n1C		54.1 µM (inactive)	> 100 µM (inactive)	39.1 µM (inactive)	> 100 µM (inactive)	> 100 µM (inactive)	74.1 µM (inactive)	> 100 µM (inactive)	43.8 µM (inactive)	> 100 µM (inactive)	73.5 µM (inactive)	38.5 µM (inactive)	32.4 µM (inactive)	70.5 µM (inactive)	> 100 µM (inactive)	48.4 µM (inactive)	> 100 µM (inactive)	29.9 µM (inactive)	
COC(=O)c1ccccc1/C=C1\Cc2ccc(C)c(C)c2C1=O	> 100 µM (inactive)	> 100 µM (inactive)	> 100 µM (inactive)	65.5 µM (inactive)	> 100 µM (inactive)	> 100 µM (inactive)	> 100 µM (inactive)	> 100 µM (inactive)	> 100 µM (inactive)	> 100 µM (inactive)	51.4 µM (inactive)	> 100 µM (inactive)	> 100 µM (inactive)	> 100 µM (inactive)		> 100 µM (inactive)	> 100 µM (inactive)	> 100 µM (inactive)	> 100 µM (inactive)
Cc1ccccc1C(=O)Oc1ccc(O)cc1	> 100 µM (inactive)	> 100 µM (inactive)	> 100 µM (inactive)	> 100 µM (inactive)	> 100 µM (inactive)	> 100 µM (inactive)	> 100 µM (inactive)		> 100 µM (inactive)		> 100 µM (inactive)	> 100 µM (inactive)	> 100 µM (inactive)			> 100 µM (inactive)	> 100 µM (inactive)	> 100 µM (inactive)	
NC(Cc1ccc(OCc2ccccc2)cn1)C(=O)OCc1ccccc1 (stereo unspecified)	> 100 µM (inactive)	> 100 µM (inactive)		> 100 µM (inactive)	> 100 µM (inactive)	> 100 µM (inactive)	> 100 µM (inactive)	> 100 µM (inactive)	> 100 µM (inactive)	> 100 µM (inactive)	> 100 µM (inactive)	> 100 µM (inactive)	> 100 µM (inactive)	> 100 µM (inactive)	> 100 µM (inactive)	> 100 µM (inactive)	> 100 µM (inactive)	> 100 µM (inactive)	
CN(C)c1ncnc2c1ncn2C1C=CC(COS(N)(=O)=O)C1 (stereo unspecified)	> 100 µM (inactive)	> 100 µM (inactive)	> 100 µM (inactive)	47.2 µM (inactive)		> 100 µM (inactive)	> 100 µM (inactive)	> 100 µM (inactive)	> 100 µM (inactive)	> 100 µM (inactive)	> 100 µM (inactive)	> 100 µM (inactive)	> 100 µM (inactive)	96.2 µM (inactive)		> 100 µM (inactive)	> 100 µM (inactive)	> 100 µM (inactive)	> 100 µM (inactive)
O=C(O)CN1CCN(CC(=O)N2CCN(C(=O)OCc3ccccc3)CC2)CCN(CC(=O)O)CCN(CC(=O)N2CCN(C(=O)OCc3ccccc3)CC2)CC1	> 100 µM (inactive)	> 100 µM (inactive)	> 100 µM (inactive)	> 100 µM (inactive)	> 100 µM (inactive)	> 100 µM (inactive)	> 100 µM (inactive)	> 100 µM (inactive)	> 100 µM (inactive)		> 100 µM (inactive)	> 100 µM (inactive)	> 100 µM (inactive)	> 100 µM (inactive)	> 100 µM (inactive)	> 100 µM (inactive)	> 100 µM (inactive)	> 100 µM (inactive)	> 100 µM (inactive)
Oc1ccc(Cc2cc(Cc3ccc(O)cc3)cc(Cc3ccc(O)cc3)c2)cc1	> 50 µM (inactive)	> 50 µM (inactive)	> 50 µM (inactive)	> 50 µM (inactive)	> 50 µM (inactive)	> 50 µM (inactive)	> 50 µM (inactive)	> 50 µM (inactive)	> 50 µM (inactive)	> 50 µM (inactive)	> 50 µM (inactive)		> 50 µM (inactive)	> 50 µM (inactive)	> 50 µM (inactive)	> 50 µM (inactive)	> 50 µM (inactive)		
Cn1c(C(C)(C)OC(=O)Oc2ccccc2)cnc1[N+](=O)[O-]	38.7 µM (inactive)	32.3 µM (inactive)	55.6 µM (inactive)	70.8 µM (inactive)	> 100 µM (inactive)	> 100 µM (inactive)	72.8 µM (inactive)	> 100 µM (inactive)	42.9 µM (inactive)		> 100 µM (inactive)	53.3 µM (inactive)	> 100 µM (inactive)		26.1 µM (inactive)	93.5 µM (inactive)	55.6 µM (inactive)	71.1 µM (inactive)	> 100 µM (inactive)
COc1ccc(-n2c(C)nc3ccc(NC(=S)Nc4ccccc4)cc3c2=O)cc1	86.1 µM (inactive)	> 100 µM (inactive)	61.4 µM (inactive)	56.8 µM (inactive)	> 100 µM (inactive)		> 100 µM (inactive)	> 100 µM (inactive)	65.2 µM (inactive)		> 100 µM (inactive)	37.4 µM (inactive)	65.9 µM (inactive)	43.7 µM (inactive)	> 100 µM (inactive)	34.8 µM (inactive)	> 100 µM (inactive)	64.1 µM (inactive)	44.6 µM (inactive)
